Measurements published in patent publication US20240425515A1, “COMPOUND OF THE 7A,8,9,10,11,11A-HEXAHYDRO-1H,7H-PYRANO[2,3-C]XANTHENE TYPE, METHOD OF PREPARATION THEREOF, INTERMEDIATES THEREOF AND THERAPEUTIC APPLICATIONS THEREOF” (CENTRE NATIONAL DE LA RECHERCHE SCIENTIFIQUE, priority 2021, published 2024).

Legend:
[1] = test system: human glioblastoma cells U87-MG; assay: Cytotoxicity on U87-MG, CellTiter Glo viability after 72 h; assay type: cell-based; conditions: U-87 MG
Experimental: (§1) The lines U87-MG and A549 were obtained from the American Type Culture Collection (Rockville, MD, USA) and were cultured according to the supplier's instructions. The human glioblastoma cells U87-MG were cultured in Dulbecco […] (DMEM) containing 10% of FCS and 1% of L-glutamine. The lung cancer cells A549 were cultured in RPMI1640 medium containing 10% of FCS and 1% of L-glutamine. The cell lines were maintained at 37° C. in a humidified atmosphere containing 5% CO2. The products were tested at 10 concentrations in triplicate and the cellular viability was evaluated after 72 h of treatment using the CellTiter Glo assay (Promega), which allows the number of live cells to be measured by luminescence (quantification of ATP).
(§2) Thus, the cells were seeded in 96-well plates (2.5×10^3 cells/well) each containing 90 μL of growth medium. After culture for 24 hours, the wells were supplemented with 10 μL of medium containing ten decreasing concentrations of the test compound dissolved in DMSO (less than 0.1% in each preparation). After incubation for 72 h, 100 μL of Cell Titer GLo reagent was added in the space of 15 min before quantifying the luminescence emitted using a microplate reader. The dose-response curve was analyzed using Graph Prism software and the activity of the molecules is expressed in the form of IC50.

[2] = target: ORD domain (OSBP-Related Domain) of the protein OSBP (Homo sapiens (Human), UniProt P22059); assay: Inhibition of DHE transport between liposomes catalyzed by the purified ORD domain of OSBP (FRET, robotized assay); assay type: biochemical; conditions: purified ORD domain 200 nM, liposomes 130 μM, 37° C., compound 50 nM to 3 μM, triplicate; read-out: Affinity for the target OSBP (Ki)
Experimental: Measurement of the inhibitory activity on OSBP is carried out by a robotized assay in the ORD domain (OSBP-Related Domain, in English) purified of the protein OSBP. The measurements are carried out according to a protocol using two preparations of liposomes: • The donor liposomes (A) contain a fluorescent sterol (DHE (dehydroergosterol)); • The acceptor liposomes (B) contain a fluorescent lipid (dansyl PE (1,2-dioleoyl-sn-glycero-3-phosphoethanolamine-N-(5-dimethylamino-1-naphthalenesulfonyl) (ammonium salt)) whose excitation spectrum covers the emission spectrum of DHE.
Transport of DHE from liposomes A to liposomes B catalyzed by the ORD domain is accompanied by a FRET signal between DHE and Dansyl-PE. Based on this signal, the kinetics of transport can be measured in real time. This measurement of fluorescence is carried out on a microplate in a TECAN Infinite 1000 Pro instrument (temperature=37° C.). At the beginning, each measurement well contains liposomes B (130 μM), ORD domain (200 nM) and the test compound. At time t=5 min, liposomes A (130 μM) are added to start the exchange reaction. Each compound is tested in triplicate for final concentrations from 50 nM to 3 μM. The time constant (k) obtained for the kinetics in each case is then represented as a function of the concentration of the analog. From this representation, an inhibition constant is determined for each compound. The affinity constants Ki are classified as follows: • Very strong affinity Ki<10 nM • Good affinity Ki from 10 to 100 nM • Low affinity Ki from 100 to 2000 nM
The compounds, other than the prodrugs, having a Ki<100 nM are regarded as active on OSBP.

lung cancer cells A549 = assay: Cytotoxicity on A549, CellTiter Glo viability after 72 h; assay type: cell-based; conditions: Homo sapiens, A549, 72 h
Experimental: as §1, §2

[3] = Stability in mouse plasma (UPLC-MS/MS); assay type: in vitro ADME; conditions: 2.5 μM
Experimental: (§3) The compounds are placed in mouse plasma and mouse microsomes, and their stability is evaluated by monitoring by UPLC-MS/MS.
(§4) For plasma stability, the concentration tested is 2.5 μM and the incubation volume is 50 μL. The incubation times are 0, 15, 30, 45, 60 and 120 minutes. Protein precipitation is then performed on the samples, and then the latter are analyzed by UPLC-MS/MS. The percentage of the compound remaining as well as its elimination half-life are thus obtained. For the metabolic stability in microsomes, the concentration of test compound is 2.5 μM, and the incubation volume is 400 μL. The concentration of mouse microsomes is 0.5 mg/mL. The incubation times are 0, 15, 30 and 45 minutes. The cofactor used is NADPH. Two negative controls are carried out, one without microsomes and without cofactor at 0 and 45 minutes, and one without cofactor and with microsome at 0 and 45 minutes. A positive control is carried out in the presence of diphenhydramine. The samples are analyzed by LC-MS/MS. The intrinsic clearance and the half-life are thus obtained.
(§5) LC-MS/MS is carried out on a UPLC Acquity™ coupled to a XEVO TQ-S(WATERS).
(§6) Liquid chromatography is carried out on an Acquity UPLC column BEH 1.7 μm, 2.1×50 mm with a gradient of 4 minutes water+0.1% […]/acetonitrile 95:5 to 100:0. The column temperature is +50° C. and the temperature of the injector is +4° C. Acquisition in mass spectrometry is performed by MRM (Multiple Reaction Monitoring), with positive electrospray ionization.

[4] = Metabolic stability in mouse hepatic microsomes (LC-MS/MS); assay type: in vitro ADME; conditions: mouse microsomes 0.5 mg/mL, 2.5 μM, NADPH
Experimental: as §3, §4, §5, §6

Sequence of ORD domain (OSBP-Related Domain) of the protein OSBP (P22059 401-807): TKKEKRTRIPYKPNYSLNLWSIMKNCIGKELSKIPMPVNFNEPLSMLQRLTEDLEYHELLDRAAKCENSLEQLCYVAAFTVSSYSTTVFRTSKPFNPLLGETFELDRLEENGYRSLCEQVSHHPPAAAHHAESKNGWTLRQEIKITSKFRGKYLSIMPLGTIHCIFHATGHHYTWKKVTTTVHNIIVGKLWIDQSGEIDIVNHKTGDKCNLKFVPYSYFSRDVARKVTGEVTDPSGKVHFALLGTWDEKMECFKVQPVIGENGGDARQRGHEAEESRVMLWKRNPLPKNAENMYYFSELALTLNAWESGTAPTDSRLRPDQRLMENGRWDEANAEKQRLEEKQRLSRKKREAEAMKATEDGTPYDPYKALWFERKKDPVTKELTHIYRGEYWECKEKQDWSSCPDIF

SMILES | Ki [2] | metabolic stability in mouse plasma at 120 minutes (percentage of compound remaining) [3] | clearance in microsomal medium (intrinsic clearance) [4] | metabolic stability in mouse microsomes [4] | IC50 [1] | IC50 (lung cancer cells A549)
COCOc1cc2oc(-c3ccccc3)cc(=O)c2c2c1C[C@@H]1C(C)(C)[C@H](OCOC)CC[C@@]1(C)O2 (racemic) [Compound 2, (7aR*,9R*,11aR*)-6,9-bis(methoxymethoxy)-8,8,11a-trimethyl-3-phenyl-7a,8,9,10,11,11a-hexahydro-1H,7H-pyrano[2,3-c]xanthen-1-one] | 100 to 2000 nM | – | – | – | > 10000 nM | > 10 µM
COCOc1cc2oc(-c3ccccc3)cc(=O)c2c2c1C[C@H]1C(C)(C)[C@@H](O)CC[C@]1(C)O2 [Compound 6, (7aS,9S,11aS)-9-hydroxy-6-(methoxymethoxy)-8,8,11a-trimethyl-3-phenyl-7a,8,9,10,11,11a-hexahydro-1H,7H-pyrano[2,3-c]xanthen-1-one] | 100 to 2000 nM | – | – | – | 4310 nM | > 10 µM
CC1(C)[C@@H](O)CC[C@]2(C)Oc3c(c(O)cc4oc(-c5ccccc5)cc(=O)c34)C[C@@H]12 [Compound 7, (7aS,9S,11aS)-6,9-dihydroxy-8,8,11a-trimethyl-3-phenyl-7a,8,9,10,11,11a-hexahydro-1H,7H-pyrano[2,3-c]xanthen-1-one] | < 10 nM | – | – | – | 1890 nM | –
CC1(C)[C@H](O)CC[C@@]2(C)Oc3c(c(O)cc4oc(-c5ccc(O)cc5)cc(=O)c34)C[C@H]12 [Compound 9, (7aR,9R,11aR)-6,9-dihydroxy-3-(4-hydroxyphenyl)-8,8,11a-trimethyl-7a,8,9,10,11,11a-hexahydro-1H,7H-pyrano[2,3-c]xanthen-1-one] | – | 100% | 26 μL/min/mg of protein | 100% | 3780 nM | –
COCOc1ccc(-c2oc3cc(OCOC)c4c(c3c(=O)c2OCOC)O[C@]2(C)CC[C@@H](O)C(C)(C)[C@H]2C4)cc1 [Compound 10, (7aR,9R,11aR)-9-hydroxy-2,6-bis(methoxymethoxy)-3-(4-(methoxymethoxy)phenyl). 8,8,11a-trimethyl-7a,8,9,10,11,11a-hexahydro-1H,7H-pyrano[2,3-c]xanthen-1-one] | – | 90% | 52 μL/min/mg of protein | 99% | 4340 nM | –
CC1(C)[C@H](O)CC[C@@]2(C)Oc3c(c(O)cc4oc(-c5ccc(O)cc5)c(O)c(=O)c34)C[C@H]12 [Compound 11, (7aR,9R,11aR)-2,6,9-trihydroxy-3-(4-hydroxyphenyl)-8,8,11a-trimethyl-7a,8,9,10,11,11a-hexahydro-1H,7H-pyrano[2,3-c]xanthen-1-one] | – | – | – | – | 2300 nM | 6.3 µM

Second part, led by results:

Ki [2] | metabolic stability in mouse plasma at 120 minutes (percentage of compound remaining) [3] | clearance in microsomal medium (intrinsic clearance) [4] | metabolic stability in mouse microsomes [4] | SMILES | IC50 [1] | IC50 (lung cancer cells A549)
< 10 nM | – | – | – | COCOc1cc2oc(-c3ccccc3)cc(=O)c2c2c1C[C@@H]1C(C)(C)[C@H](O)CC[C@@]1(C)O2 (racemic) [Compound 1, (7aR*9R*,11aR*)-9-hydroxy-6-(methoxymethoxy)-8,8,11a-trimethyl-3-phenyl-7a,8,9,10,11,11a-hexahydro-1H,7H-pyrano[2,3-c]xanthen-1-one] | 540 nM | 5.08 µM
< 10 nM | 99% | 152 μL/min/mg of protein | 88% | CC1(C)[C@H](O)CC[C@@]2(C)Oc3c(c(O)cc4oc(-c5ccccc5)cc(=O)c34)C[C@H]12 (racemic) [Compound 3, (7aR*,9R*,11aR*)-6,9-dihydroxy-8,8,11a-trimethyl-3-phenyl-7a,8,9,10,11,11a-hexahydro-1H,7H-pyrano[2,3-c]xanthen-1-one] | 340 nM | 3.4 µM
10 to 100 nM | – | – | – | COCOc1cc2oc(-c3ccccc3)cc(=O)c2c2c1C[C@@H]1C(C)(C)[C@H](O)CC[C@@]1(C)O2 [Compound 4, (7aR,9R,11aR)-9-hydroxy-6-(methoxymethoxy)-8,8,11a-trimethyl-3-phenyl-7a,8,9,10,11,11a-hexahydro-1H,7H-pyrano[2,3-c]xanthen-1-one] | 440 nM | –
< 10 nM | – | – | – | CC1(C)[C@H](O)CC[C@@]2(C)Oc3c(c(O)cc4oc(-c5ccccc5)cc(=O)c34)C[C@H]12 [Compound 5, (7aR,9R,11aR)-6,9-dihydroxy-8,8,11a-trimethyl-3-phenyl-7a,8,9,10,11,11a-hexahydro-1H,7H-pyrano[2,3-c]xanthen-1-one] | 280 nM | 1.38 µM
10 to 100 nM | – | – | – | COCOc1ccc(-c2cc(=O)c3c4c(c(OCOC)cc3o2)C[C@@H]2C(C)(C)[C@H](O)CC[C@@]2(C)O4)cc1 [Compound 8, (7aR,9R,11aR)-9-hydroxy-6-(methoxymethoxy)-3-(4-(methoxymethoxy)phenyl)-8,8,11a-trimethyl-7a,8,9,10,11,11a-hexahydro-1H,7H-pyrano[2,3-c]xanthen-1-one] | 160 nM | –
